Biological target: T1, β1,3-N-acetylglucosaminyl transferase (G4) (Homo sapiens, UniProt Q9Y2A9, R328H)
T1 construct: made in house; host or cells: Sf21 insect cells infected with recombinant baculovirus from pVL1393-F2G4
T1 sequence (Q9Y2A9 38-372 R328H): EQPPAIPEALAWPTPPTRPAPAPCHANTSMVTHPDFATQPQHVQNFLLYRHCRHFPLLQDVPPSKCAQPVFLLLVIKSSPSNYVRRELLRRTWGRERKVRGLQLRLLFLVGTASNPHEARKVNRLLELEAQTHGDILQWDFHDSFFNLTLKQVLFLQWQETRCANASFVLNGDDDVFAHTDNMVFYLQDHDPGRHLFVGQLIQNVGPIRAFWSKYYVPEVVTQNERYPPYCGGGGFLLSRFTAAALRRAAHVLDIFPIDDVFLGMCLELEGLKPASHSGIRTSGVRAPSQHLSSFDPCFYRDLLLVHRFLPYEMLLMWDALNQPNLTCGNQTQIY
Assay: Substrate specificity of G4 with unlabeled oligosaccharides (HPAE/PAD)
Type: biochemical
Conditions: for Relative activity (%): unlabeled substrate, 37° C., 16 hours, activity on LNnT defined as 100%
Method: The reaction using the glycosyltransferase was carried out as follows. The reaction was carried out at 37° C. for 16 hours in 40 μl of an assay solution [50 mmol/l MOPS (pH 7.5), 5 mmol/l UDP-GlcNAc (SIGMA), 5 mmol/l MnCl2, […] and 10 μl of the above eluate]. Next, the reaction solution was treated at 100° C. for 5 minutes and then centrifuged at 10,000×g for 20 minutes to obtain the supernatant, and a portion thereof was analyzed using HPAE/PAD (High Performance Anion Pulsed Amperometoric Detection; manufactured by DIONEX). The specific method was carried out in the usual way [Anal. Biochem., 189, 151 (1990), J. Biol. Chem., 273, 433 (1998)].
As substrates, the following unlabeled oligosaccharides were used: lactose (Galβ1-4Glc), N-acetyllactosamine (Galβ1-4GlcNAc, hereinafter referred to as “LacNAc” in some cases), LNnT, LNT and lacto-N-neohexaose (Galβ1-4GlcNACβ1-3Galβ1-4GlcNAcβ1-3Galβ1-4Glc, hereinafter referred to as “LNnH”).
For each substrate, the reaction was carried using the assay solution with or without UDP-GlcNAc (sugar donor), and then HPLC was carried out and peaks appeared only in the assay solution containing UDP-GlcNAc were defined as products.
In identifying the product, coincidence of its elution time with that of a standard sugar chain was used as the index. As the standard sugar chains, GlcNAcβ1-3Galβ1-4Glc, GlcNAcβ1-3Galβ1-4GlcNAc and GlcNAcβ1-3Galβ1-4GlcNAcβ1-3Galβ1-4Glc were used.

| conversion ratio of the substrate into the product (unlabeled LNnT as substrate) | Relative activity (%) | SMILES |
| --- | --- | --- |
| 1.7% | 100% | CC(=O)N[C@H]1[C@H](O[C@H]2[C@@H](O)[C@@H](CO)O[C@@H](O[C@H]3[C@H](O)[C@@H](O)C(O)O[C@@H]3CO)[C@@H]2O)O[C@H](CO)[C@@H](O[C@@H]2O[C@H](CO)[C@H](O)[C@H](O)[C@H]2O)[C@@H]1O (mixture of isomers) [LNnT, lacto-N-neotetraose] |
| – | 114% | CC(=O)N[C@H]1[C@H](O[C@H]2[C@@H](O)[C@@H](CO)O[C@@H](O[C@H]3[C@H](O)[C@@H](O)C(O)O[C@@H]3CO)[C@@H]2O)O[C@H](CO)[C@@H](O)[C@@H]1O[C@@H]1O[C@H](CO)[C@H](O)[C@H](O)[C@H]1O (stereo partly drawn) [LNT, lacto-N-tetraose] |

Reference: patent US7972815B2, “Method of producing sugar chain using human G4 polypeptide” (Kyowa Hakko Kirin Co., Ltd., priority 1999, dated 2011)
